Source: US12226374B2, “Compositions comprising quinone and/or quinol and methods of preparations and use thereof” (American River Nutrition, LLC, priority 2019, dated 2025)

What was measured:
Format in all cases: physicochemical
[1] = Stability of CoQ10 at elevated temperatures in CoQ:AP:GG mixture (HPLC)
Method: (§1) The weight ratios of CoQone to CoQnol in the mixture were determined by HPLC using a modified method disclosed by Mattila (Mattila et al., 2000), which is incorporated by reference in its entirety. Samples were extracted from the mixing vessel under inert gas flush and the mixing vessel was then flushed with inert gas prior to resealing. Samples were dissolved in chloroform and then analyzed on a Waters Symmetry C18 column (5 μm, 4.6×250 mm) at about 35° C. The mobile phase (1.8 mL/min) was methanol:ethanol:2-propanol (53:25:22) with UV detection at 275 nm for CoQone and 290 nm for CoQnol. The retention times were about 5.7 min for CoQnol and about 8.8 min for CoQone, respectively. The HPLC method described herein was utilized in subsequent examples.
GG was added to an appropriately sized mixing vessel and heated to about 52° C. (±3°) while stirring. CoQone was added to the mixing vessel with GG to form a mixture. The mixture was stirred at about 52° C. (±3°) until CoQone was completely melted and solubilized in GG to attain a translucent solution. Then AP was added to the translucent solution, which was stirred until no visible dry AP was left on the surface. […] This mixture was then mixed at elevated temperature for 10 days with periodic flushing of neutral, non-oxygenated gas where the CoQnol conversion rate and the total amount of CoQ (both CoQnol and CoQone) were monitored.

[2] = CoQone solubilized in GG as binary mixture: dissolution and degradation; details: CoQone about 25% / GG about 75%
Method: as §1
GG was added to an appropriately sized mixing vessel and heated to about 52° C. (±3°) while stirring. CoQone was added to the mixing vessel with GG to form a mixture. The mixture was stirred at about 52° C. (±3°) until CoQone was completely melted and solubilized in GG to attain a translucent solution. The mixing vessel was then flushed with a neutral, non-oxygenated gas until atmospheric air was displaced and the mixing vessel was sealed airtight. This mixture was then mixed for several days.

[3] = CoQone mixed directly with AP (binary mixture) at elevated temperature: total CoQ degradation; details: about 75° C., about 3 days
Method: as §1
CoQone was added to an appropriately sized mixing vessel and melted at about 52° C. (±3°) while stirring. AP was added to the mixing vessel with CoQone to form a mixture. The mixture was gently stirred at about 52° C. (±3°) until no apparent dry AP was visible. The mixing vessel was then flushed with a neutral, non-oxygenated gas until atmospheric air was displaced and the mixing vessel was sealed airtight. This mixture was then mixed at elevated temperature for several days with periodic flushing of inert gas with the CoQone to CoQnol conversion rate being monitored.

[4] = Headspace comparison of inert gases (nitrogen vs argon): total CoQ10 loss; details: CoQ10:AP:GG about 4:2:4, about 52° C., about 6-7 days
Method: as §1
CoQ10, AP, and GG are provided in the weight ratio of about 4:2:4. The three components were placed in a mixing vessel kept stirred at about 52° C. (±3°). The mixing vessel was flushed with a neutral, non-oxygenated gas until atmospheric air was displaced entirely by Nitrogen […] or Argon (Ar) and sealed airtight. This mixture was then stirred at elevated temperatures for about 6-7 days until the target CoQnol conversion rate was reached.

[5] = Manufacture production batch (20 kg) and softgels: total CoQ loss and stability; details: 20 kg CoQone:AP:GG batch, argon, about 52° C., about six days
Method: A manufacture batch was run according the preparation methods set forth in Example 1 with the following modifications. The total amount of CoQone:AP:GG mixtures was 20 kg. Argon was used to flush the mixing vessel until the atmospheric air was displaced. After the mixing vessel was sealed air-tight, this mixture of CoQone:AP:GG was then stirred at about 52° C. (±2°) for about six days with periodic flushing of Argon for about every 24 hours.
The final composition in the sealed vessel was placed in a hopper for the encapsulation process in a softgel assembly line. The finished softgels were analyzed to determine that the weight percentage of CoQnol in total amount of CoQnol and CoQone is about 93%. […] Softgels are hermetically sealed and the contents within the softgels are expected to be stable for at least about 2 years.

loss of total CoQ10 ([1]; about 3-5 days at about 50-55° C., initial ratio CoQ:AP:GG 1:1:1): less than 5% | loss of total CoQ (both CoQone and CoQnol) ([1]; about 8-10 days at about 50-55° C., fixed initial ratio CoQ:AP:GG about 1:1:1, inert gas with periodic flushing): about 15% | dissolution of CoQ10 in GG ([2]; about 52° C.): completely dissolved | degradation of CoQ ([2]; after about 3 weeks, inert gas): nor was there any degradation | total CoQ10 degraded [3]: about 21% | total loss of CoQ10 ([4]; argon-filled headspace): less than 0.5% | total CoQ10 loss ([4]; nitrogen-filled headspace): about 7% | loss of the total CoQ [5]: without any measurable loss
SMILES: COC1=C(OC)C(=O)C(C/C=C(\C)CC/C=C(\C)CC/C=C(\C)CC/C=C(\C)CC/C=C(\C)CC/C=C(\C)CC/C=C(\C)CC/C=C(\C)CC/C=C(\C)CCC=C(C)C)=C(C)C1=O [CoQ10]
